Key:
[1] = Acute toxicity, oral, LD50 (Litchfield and Wilcoxon); conditions: mouse, in vivo, fasted male mice, confidence limits p=95% in brackets
Procedure: (1) The acute toxicity was determined on fasted male mice. The tested substances were orally administered and LD50 values (lethal dose for 50% of animals) were calculated according to the method of Litchfield and Wilcoxon (J. Pharmacol. exp. Ther. 96, 94-113, 1949). These LD50 values are given in mg/kg and also, when possible, with their confidence limits for p=95%.

[2] = system: guinea-pig ileum (barium chloride contractions); experiment: Antispasmodic activity in vitro, contractions caused by barium chloride; conditions: added 15 minutes before spasm-producing agent
Procedure: (§1) (4) The antispasmodic activity was measured in vitro, on guinea-pig ileum, the contractions of which were caused by histammne (Hist.), acetylcholine (Achol) or barium chloride (BaCl2). The tested products were added to perfusion bath 15 minutes before the spasm-producing agents.
(§2) The dose is given in micograms (μg) per ml of bath causing complete spasm inhibition.

[3] = system: femoral artery; experiment: Vasodilator activity, femoral artery (technique of perfused paw); format: in vivo; set-up: key: O: no action; +: slight activity; ++: effect equal to half the effect of papaverine; +++: effect equal to that of papaverine; ++++: effect higher than that of papaverine; conditions: intra-arterial, 30 mg/kg, anaesthetized dog, vs papaverine at same dose
Procedure: (3) The vasodilator activity was measured at the level of femoral artery on anaesthetized dog (technique of perfused paw). The tested substances were given intra-arterially at the rate of 30 mg/kg. Results are expressed with respect to papaverine tested at the same dose.
++: effect equal to half the effect of papaverine.
+++: effect equal to that of papaverine.
++++: effect higher than that of papaverine.

[4] = system: guinea-pig ileum (acetylcholine contractions); experiment: Antispasmodic activity in vitro, contractions caused by acetylcholine; conditions: added 15 minutes before spasm-producing agent
Procedure: as §1, §2

[5] = system: unanaesthetized, hypertension-suffering rat; experiment: Antihypertensive activity (systolic arterial pressure), oral; format: in vivo; conditions: 60 mg/kg, hypertensive rat, 3 hours
Summary of the method: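 Conscious hypertensive rats given compound orally at 60 mg/kg; systolic arterial pressure measured every 30 min for 2 h pre-dose and 3 h post-dose. Scored O (no fall), + (<10 mm Hg), ++ (10–20 mm Hg), +++ (>20 mm Hg).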

[6] = system: guinea-pig ileum (histamine contractions); experiment: Antispasmodic activity in vitro, contractions caused by histamine; conditions: added 15 minutes before spasm-producing agent
Procedure: as §1, §2

## CC(NCCOc1ccccc1)C(O)c1ccc2c(c1)CCCS2 (stereo not drawn) [No 20]
[1]
  LD50: > 4000 mg/kg
[2]
  ANTISPASMODIC ACTIVITY BaCl2 (dose causing complete spasm inhibition): 8.3 μg per ml
[3]
  VASODILATOR ACTIVITY: +++
[4]
  ANTISPASMODIC ACTIVITY ACHOL (dose causing complete spasm inhibition): 3.3 μg per ml
[5]
  ANTIHYPERTENSIVE ACTIVITY: +++ (reduction higher than 20 mm Hg)
[6]
  ANTISPASMODIC ACTIVITY HIST. (dose causing complete spasm inhibition): 8.3 μg per ml

## CC(NCCCc1ccccc1)C(O)c1ccc2c(c1)CCCS2 (stereo not drawn) [No 17]
[1]
  LD50: > 4000 mg/kg
[2]
  ANTISPASMODIC ACTIVITY BaCl2 (dose causing complete spasm inhibition): 1.7 μg per ml
[3]
  VASODILATOR ACTIVITY: +++
[4]
  ANTISPASMODIC ACTIVITY ACHOL (dose causing complete spasm inhibition): 1.7 μg per ml
[5]
  ANTIHYPERTENSIVE ACTIVITY: +++ (reduction higher than 20 mm Hg)
[6]
  ANTISPASMODIC ACTIVITY HIST. (dose causing complete spasm inhibition): 0.8 μg per ml

— patent US4638070A, “Heterocyclic amino-alcohol derivatives” (Continental Pharma, priority 1980, dated 1987)
